According to publication PMC2826131 (Journal of the American Chemical Society, 2010):

How the values were obtained:
rat nNOS = rat nNOS (Rattus norvegicus, UniProt P29476); experiment: NOS hemoglobin capture assay, Ki from IC50; format: biochemical; conditions: 10 μM L-arginine, calculated from IC50, mean ± SD of 2-3 experiments
ferrous nNOS heme domain = ferrous nNOS heme domain (Rattus norvegicus, UniProt P29476); experiment: Ferrous difference spectrometry; format: binding; conditions: type of difference spectrum toward ferrous (dithionite-reduced) nNOS heme domain
ferric nNOS heme domain = ferric nNOS heme domain (Rattus norvegicus, UniProt P29476); experiment: Ferric difference spectrometry; format: binding; conditions: type of difference spectrum toward ferric nNOS heme domain
Chain of ferric nNOS heme domain (P29476 297-718 limits assumed): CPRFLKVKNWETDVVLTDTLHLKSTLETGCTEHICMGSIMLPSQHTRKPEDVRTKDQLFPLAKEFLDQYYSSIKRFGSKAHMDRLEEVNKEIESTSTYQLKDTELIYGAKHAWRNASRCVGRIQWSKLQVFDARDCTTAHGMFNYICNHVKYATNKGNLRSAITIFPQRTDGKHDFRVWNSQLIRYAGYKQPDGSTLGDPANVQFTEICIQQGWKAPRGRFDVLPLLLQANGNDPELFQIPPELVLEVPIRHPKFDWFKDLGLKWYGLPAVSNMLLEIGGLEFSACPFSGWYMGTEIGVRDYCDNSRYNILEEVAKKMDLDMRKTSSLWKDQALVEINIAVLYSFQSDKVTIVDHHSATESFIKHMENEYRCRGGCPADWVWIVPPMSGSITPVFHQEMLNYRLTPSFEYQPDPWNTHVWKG

Chain of ferrous nNOS heme domain (P29476 297-718 limits assumed): as above
Chain of rat nNOS (P29476 whole entry, the tested form may be a part): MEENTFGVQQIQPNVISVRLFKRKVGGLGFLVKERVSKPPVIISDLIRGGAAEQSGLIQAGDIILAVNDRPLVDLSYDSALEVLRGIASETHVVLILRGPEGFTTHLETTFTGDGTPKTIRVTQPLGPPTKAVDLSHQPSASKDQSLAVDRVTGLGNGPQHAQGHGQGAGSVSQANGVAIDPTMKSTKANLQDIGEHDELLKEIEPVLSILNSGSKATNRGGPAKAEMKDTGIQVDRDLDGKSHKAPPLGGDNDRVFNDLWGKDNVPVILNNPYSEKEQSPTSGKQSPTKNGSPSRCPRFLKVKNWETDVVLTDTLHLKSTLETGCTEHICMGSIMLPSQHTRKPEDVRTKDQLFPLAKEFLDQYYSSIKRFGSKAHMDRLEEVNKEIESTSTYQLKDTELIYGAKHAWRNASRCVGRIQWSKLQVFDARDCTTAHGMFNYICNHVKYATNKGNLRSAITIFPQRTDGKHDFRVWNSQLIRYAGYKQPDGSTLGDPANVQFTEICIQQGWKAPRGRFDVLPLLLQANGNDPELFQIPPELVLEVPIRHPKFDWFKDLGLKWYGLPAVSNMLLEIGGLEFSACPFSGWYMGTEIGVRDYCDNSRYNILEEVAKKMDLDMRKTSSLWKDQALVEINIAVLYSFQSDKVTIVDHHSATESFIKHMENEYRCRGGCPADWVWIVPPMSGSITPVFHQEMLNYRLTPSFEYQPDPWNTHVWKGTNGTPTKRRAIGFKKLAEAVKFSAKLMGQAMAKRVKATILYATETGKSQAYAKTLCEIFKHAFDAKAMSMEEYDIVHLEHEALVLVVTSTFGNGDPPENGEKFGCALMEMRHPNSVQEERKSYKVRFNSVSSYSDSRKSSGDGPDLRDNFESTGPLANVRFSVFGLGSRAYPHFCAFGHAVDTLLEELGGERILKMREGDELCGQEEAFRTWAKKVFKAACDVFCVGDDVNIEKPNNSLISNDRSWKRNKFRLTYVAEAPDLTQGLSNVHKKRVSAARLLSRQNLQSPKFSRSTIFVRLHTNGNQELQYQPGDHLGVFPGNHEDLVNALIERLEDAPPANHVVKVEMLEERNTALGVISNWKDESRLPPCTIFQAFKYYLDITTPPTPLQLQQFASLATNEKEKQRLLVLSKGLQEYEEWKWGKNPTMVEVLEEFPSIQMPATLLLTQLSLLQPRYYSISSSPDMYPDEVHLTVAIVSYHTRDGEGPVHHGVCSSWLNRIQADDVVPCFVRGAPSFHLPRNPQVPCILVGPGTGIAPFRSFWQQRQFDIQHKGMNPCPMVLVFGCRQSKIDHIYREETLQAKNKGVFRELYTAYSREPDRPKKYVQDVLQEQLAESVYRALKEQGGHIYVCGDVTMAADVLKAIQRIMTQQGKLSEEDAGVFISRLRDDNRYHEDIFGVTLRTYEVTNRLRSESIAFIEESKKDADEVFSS

Row | Structure (SMILES) | Ki (rat nNOS) [µM] | Fe^2+ type (ferrous nNOS heme domain) | Fe^3+ type (ferric nNOS heme domain)
1 | c1c[nH]cn1 [Imidazole] | 29.7 ± 0.8 | I | 
2 | NC(=NCCC[C@H](N)C(=O)O)N[N+](=O)[O-] [L-Nitroarginine] |  | I | I
